Values quoted from earlier work, collected in US11654140B2, “Treatment of ocular inflammatory diseases using laquinimod” (Active Biotech AB, priority 2012, dated 2023).

Tested on: patients with a history of uveitis
Conditions: patients with a history of uveitis (Sergott, 2011); cited from earlier work

CCCCCCCCc1ccc(CCC(N)(CO)CO)cc1 [fingolimod]
risk of macular edema: known to pose a risk of macular edema
